Patent EP3722296B1, “DIHYDRONAPHTHYRIDINES AND RELATED COMPOUNDS USEFUL AS KINASE INHIBITORS FOR THE TREATMENT OF PROLIFERATIVE DISEASES” (Deciphera Pharmaceuticals, LLC, priority 2012, dated 2013)

Assays:
[1] = test system: Phospho-KIT (Tyr719); test: GIST48 KIT Western Blot; format: cell-based; details: GIST48 cells, 4 hours, serum-free medium; read-out: pKIT suppression by western blot analysi GIST48
Procedure, shortened: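 Phospho-KIT (Tyr719) was immunoblotted on PVDF and imaged in fluorescence mode after ECL Plus, with stripping and reprobing for total KIT. IC50 values were derived from the blot signals.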

[2] = target: T1, Phospho-KIT (Tyr719) (Homo sapiens, UniProt P10721, DEL560-578); test: GIST T1 KIT Western Blot; format: cell-based; details: GIST T1 cells, 4 hours, serum-free medium; read-out: pKIT suppression by western blot analysi GIST T1
T1 construct: endogenous in cells; host or cells: GIST T1
T1 sequence (P10721 with tags, fused parts or gaps DEL560-578): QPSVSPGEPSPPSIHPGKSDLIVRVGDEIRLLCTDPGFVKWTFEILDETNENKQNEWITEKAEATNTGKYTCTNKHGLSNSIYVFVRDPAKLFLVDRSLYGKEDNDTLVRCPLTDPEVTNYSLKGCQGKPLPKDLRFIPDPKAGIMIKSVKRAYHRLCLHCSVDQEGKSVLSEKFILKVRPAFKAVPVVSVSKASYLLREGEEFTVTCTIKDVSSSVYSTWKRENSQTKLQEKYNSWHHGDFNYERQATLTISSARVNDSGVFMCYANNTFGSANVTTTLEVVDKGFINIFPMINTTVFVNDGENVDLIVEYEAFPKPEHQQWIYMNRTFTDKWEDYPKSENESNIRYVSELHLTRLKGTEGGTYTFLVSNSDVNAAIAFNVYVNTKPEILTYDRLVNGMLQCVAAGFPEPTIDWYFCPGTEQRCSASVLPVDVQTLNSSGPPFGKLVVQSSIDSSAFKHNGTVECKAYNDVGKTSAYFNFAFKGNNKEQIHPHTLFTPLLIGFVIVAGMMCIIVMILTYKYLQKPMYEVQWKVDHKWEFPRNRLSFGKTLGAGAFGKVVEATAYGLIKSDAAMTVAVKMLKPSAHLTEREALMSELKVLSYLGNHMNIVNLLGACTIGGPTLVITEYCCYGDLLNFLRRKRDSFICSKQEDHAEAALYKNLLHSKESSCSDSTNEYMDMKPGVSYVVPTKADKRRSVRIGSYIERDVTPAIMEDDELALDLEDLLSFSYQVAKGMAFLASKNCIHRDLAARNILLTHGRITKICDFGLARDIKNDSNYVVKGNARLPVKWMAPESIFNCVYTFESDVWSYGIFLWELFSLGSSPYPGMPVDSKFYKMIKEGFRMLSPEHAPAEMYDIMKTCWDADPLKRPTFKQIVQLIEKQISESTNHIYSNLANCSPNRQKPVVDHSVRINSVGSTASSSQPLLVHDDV
Procedure: GIST48, GIST430, and GIST882 cells were obtained from J. Fletcher (Brigham and Women's Hospital, Boston, MA). GIST T1 cells were obtained from B. Rubin (Cleveland Clinic, Cleveland, OH) and Professor Takahiro Taguchi (Kochi Medical School, Nankoku, Kochi, Japan). […] GIST430 cells were grown in Ham's F10 medium supplemented with 15% characterized fetal bovine serum (Invitrogen, Carlsbad, CA), 30 mg/L bovine pituitary extract (BD Biosciences, San Jose, CA), 0.5% Mito+ serum extender (BD Biosciences, San Jose, CA), 1 unit/mL penicillin G, 1 µg/ml streptomycin, and 0.29 mg/mL L-glutamine at 37 °C, 5%CO2, 95% humidity. GIST T1 cells were grown in DMEM medium supplemented with 10% characterized fetal bovine serum (Invitrogen, Carlsbad, CA), 1 unit/mL penicillin G, 1 µg/ml streptomycin, and 0.29 mg/mL L-glutamine at 37 °C, 5% CO2, and 95% humidity. Cells were allowed to expand until reaching 70-95% confluence at which point they were subcultured or harvested for assay use.
One hundred twenty-five thousand cells were added per well in a 24-well tissue-culture treated plate. Cells were then incubated overnight at 37°C, 5% CO2, 95% humidity. Medium was aspirated, cells were washed with PBS, and serum-free DMEM medium was added. A serial dilution of test compound was added to plates containing cells and plates were incubated for 4 hours at 37°C, 5% CO2, 95% humidity. Cells were washed with PBS, then lysed. Cell lysates were separated by SDS-PAGE and transferred to PVDF. Phospho-KIT (Tyr719) was detected using an antibody from Cell Signaling Technology (Beverly, MA), ECL Plus detection reagent (GE Healthcare, Piscataway, NJ) and a Molecular Devices Storm 840 phosphorimager in fluorescence mode. Blots were stripped and probed for total KIT using an antibody from Santa Cruz Biotech (Santa Cruz, CA). IC50 values were calculated using Prism software (Graphpad, San Diego, CA).

[3] = target: T2, c-KIT V654A kinase (Homo sapiens, UniProt P10721, V654A); test: c-KIT V654A Kinase Assay; format: biochemical; details: enzymatic assay, ATP 200 µM
T2 construct: residues T544-V976 with N-terminal GST fusion; purchased deCODE Biostructures
T2 sequence (P10721 544-976 V654A): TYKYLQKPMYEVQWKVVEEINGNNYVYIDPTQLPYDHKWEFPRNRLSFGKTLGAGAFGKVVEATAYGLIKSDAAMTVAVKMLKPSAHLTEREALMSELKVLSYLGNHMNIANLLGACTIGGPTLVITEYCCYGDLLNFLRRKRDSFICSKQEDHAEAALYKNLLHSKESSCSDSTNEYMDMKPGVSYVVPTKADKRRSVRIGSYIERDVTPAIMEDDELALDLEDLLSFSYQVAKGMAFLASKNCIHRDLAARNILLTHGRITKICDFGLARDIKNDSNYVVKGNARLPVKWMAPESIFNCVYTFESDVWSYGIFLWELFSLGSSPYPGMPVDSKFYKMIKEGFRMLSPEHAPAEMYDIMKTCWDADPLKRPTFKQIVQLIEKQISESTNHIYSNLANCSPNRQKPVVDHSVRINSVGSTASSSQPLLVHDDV
Procedure, shortened: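 Kinase activity tracked by coupled NADH consumption, monitored continuously at 340 nm over 6 h at 30 °C after serially diluted compound was mixed in to start inhibition. Enzyme used was a GST-fused, N-terminally tagged cKIT T544–V976 construct with a TEV cleavage site.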

[4] = test system: GIST T1 cells; test: GIST T1 Cell Proliferation Assay; format: cell-based; details: Homo sapiens, GISTT1, 72 h, 68 hours + 4 hours resazurin

Row | IC50 [1] [nM] | IC50 [2] [nM] | IC50 [3] [nM] | Compound | IC50 [4] [nM]
1 | 100 to 1000 | < 10 | < 10 | CCn1c(=O)c(-c2cc(NC(=O)Nc3cccc(F)c3)c(F)cc2Cl)cc2cnc(NCCOC)cc21 [Example 28, 1-(4-chloro-5-(1-ethyl-7-(2-methoxyethylamino)-2-oxo-1,2-dihydro-1,6-naphthyridin-3-yl)-2-fluorophenyl)-3-(3-fluorophenyl)urea] | 10 to 100
2 | 10 to 100 | < 10 | 10 to 100 | CCn1c(=O)c(-c2cc(NC(=O)Nc3cccc(F)c3)c(F)cc2C)cc2cnc(NC)cc21 [Example 44, 1-(5-(1-ethyl-7-(methylamino)-2-oxo-1,2-dihydro-1,6-naphthyridin-3-yl)-2-fluoro-4-methylphenyl)-3-(3-fluorophenyl)urea] | < 10
3 | 100 to 1000 | < 10 | 10 to 100 | CCn1c(=O)c(-c2cc(NC(=O)Nc3cccc(F)c3)c(F)cc2Br)cc2cnc(NC)cc21 [Example 50, 1-(4-bromo-5-(1-ethyl-7-(methylamino)-2-oxo-1,2-dihydro-1,6-naphthyridin-3-yl)-2-fluorophenyl)-3-(3-fluorophenyl)urea] | 10 to 100
4 | 100 to 1000 | < 10 | 10 to 100 | CCn1c(=O)c(-c2cc(NC(=O)Nc3ccccc3)c(F)cc2Br)cc2cnc(N)cc21 [Example 57, 1-(5-(7-amino-1-ethyl-2-oxo-1,2-dihydro-1,6-naphthyridin-3-yl)-4-bromo-2-fluorophenyl)-3-phenylurea] | < 10
5 | 10 to 100 | < 10 | 10 to 100 | CCn1c(=O)c(-c2cc(NC(=O)Nc3csc4ccccc34)c(F)cc2C)cc2cnc(NC)cc21 [Example 59, 1-(benzo[b]thiophen-3-yl)-3-(5-(1-ethyl-7-(methylamino)-2-oxo-1,2-dihydro-1,6-naphthyridin-3-yl)-2-fluoro-4-methylphenyl)urea] | 10 to 100

Second part, the compound before the results:

Row | Compound | IC50 [1] [nM] | IC50 [2] [nM] | IC50 [3] [nM] | IC50 [4] [nM]
6 | CCn1c(=O)c(-c2cc(NC(=O)Nc3csc4ccccc34)c(F)cc2Cl)cc2cnc(NC)cc21 [Example 32, 1-(benzo[b]thiophen-3-yl)-3-(4-chloro-5-(1-ethyl-7-(methylamino)-2-oxo-1,2-dihydro-1,6-naphthyridin-3-yl)-2-fluorophenyl)urea] | < 10 | < 10 | 10 to 100 | < 10
7 | CCn1c(=O)c(-c2cc(NC(=O)Nc3ccccc3)c(F)cc2Cl)cc2cnc(NC(C)=O)cc21 [Example 54, 1-(5-(7-acetamido-1-ethyl-2-oxo-1,2-dihydro-1,6-naphthyridin-3-yl)-4-chloro-2-fluorophenyl)-3-phenylurea] | 10 to 100 | < 10 | 10 to 100 | < 10
8 | CCn1c(=O)c(-c2cc(NC(=O)Nc3ccccc3)c(F)cc2Cl)cc2cnc(NC(=O)N(C)C)cc21 [Example 70, 3-(3-(2-chloro-4-fluoro-5-(3-phenylureido)phenyl)-1-ethyl-2-oxo-1,2-dihydro-1,6-naphthyridin-7-yl)-1,1-dimethylurea] | 10 to 100 | < 10 | 10 to 100 | < 10
